Assay results reported in the supplement of paper PMC4862054.

Tests used:
Settings in all cases: incubation time: 72 h
[1] = system: BT-474; assay: normalised response (% of control), CellTox Green; higher = less cell death (100 = DMSO, 0 = benzethonium chloride kill control)
Outline: (§1)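 Breast cancer cell lines in 20 µl suspension were added to 384-well plates containing compound at 5 concentrations, spaced in 10-fold steps across a 10,000-fold range chosen for each compound, and incubated for 72 h. CellTox Green fluorescence was read at 485/520 nm, followed by CellTiter-Glo luminescence after 10 min at room temperature. Signals on each plate were normalised so that 0.1 % DMSO equals 100 and a positive kill control equals 0. Every value in the table is the normalised signal at one concentration of the series.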

[2] = system: BT-549; assay: as above
Outline: as §1

[3] = system: CAL-120; assay: as above
Outline: as §1

[4] = system: CAL-148; assay: as above
Outline: as §1

[5] = system: CAL-51; assay: as above
Outline: as §1

[6] = system: CAL-85-1; assay: as above
Outline: as §1

[7] = system: DU-4475; assay: as above
Outline: as §1

[8] = system: HCC1143; assay: as above
Outline: as §1

[9] = system: HCC1599; assay: as above
Outline: as §1

[10] = system: HCC1937; assay: as above
Outline: as §1

[11] = system: HDQ-P1; assay: as above
Outline: as §1

[12] = system: Hs578T; assay: as above
Outline: as §1

[13] = system: MCF-10A; assay: as above
Outline: as §1

[14] = system: MDA-MB-231; assay: as above
Outline: as §1

[15] = system: MDA-MB-436; assay: as above
Outline: as §1

[16] = system: MDA-MB-453; assay: as above
Outline: as §1

[17] = system: MDA-MB-468; assay: as above
Outline: as §1

[18] = system: MFM-223; assay: as above
Outline: as §1

[19] = system: BT-474; assay: normalised response (% of control), CellTiter-Glo; higher = more viable cells (100 = DMSO, 0 = benzethonium chloride kill control)
Outline: as §1

[20] = system: BT-549; assay: as above
Outline: as §1

[21] = system: CAL-120; assay: as above
Outline: as §1

[22] = system: CAL-148; assay: as above
Outline: as §1

[23] = system: CAL-51; assay: as above
Outline: as §1

[24] = system: CAL-85-1; assay: as above
Outline: as §1

[25] = system: DU-4475; assay: as above
Outline: as §1

[26] = system: HCC1143; assay: as above
Outline: as §1

[27] = system: HCC1599; assay: as above
Outline: as §1

[28] = system: HCC1937; assay: as above
Outline: as §1

[29] = system: HDQ-P1; assay: as above
Outline: as §1

[30] = system: Hs578T; assay: as above
Outline: as §1

[31] = system: MCF-10A; assay: as above
Outline: as §1

[32] = system: MDA-MB-231; assay: as above
Outline: as §1

[33] = system: MDA-MB-436; assay: as above
Outline: as §1

[34] = system: MDA-MB-453; assay: as above
Outline: as §1

[35] = system: MDA-MB-468; assay: as above
Outline: as §1

[36] = system: MFM-223; assay: as above
Outline: as §1

[37] = system: SK-BR-3; assay: as above
Outline: as §1

CN(C)C/C=C/C(=O)Nc1cc2c(Nc3ccc(F)c(Cl)c3)ncnc2cc1O[C@H]1CCOC1 [Afatinib] (100 nM)
normalised response [1]: 81.3%
normalised response [2]: 116%
normalised response [3]: 101%
normalised response [4]: 102%
normalised response [5]: 107%
normalised response [6]: 55.7%
normalised response [7]: 101%
normalised response [8]: 111%
normalised response [9]: 112%
normalised response [10]: 135%
normalised response [11]: 90.9%
normalised response [12]: 100%
normalised response [13]: 85.5%
normalised response [14]: 113%
normalised response [15]: 87%
normalised response [16]: 102%
normalised response [17]: 110%
normalised response [18]: 101%
normalised response [19]: 90.6%
normalised response [20]: 98.5%
normalised response [21]: 92.9%
normalised response [22]: 75.1%
normalised response [23]: 118%
normalised response [24]: 65.9%
normalised response [25]: 98.1%
normalised response [26]: 100%
normalised response [27]: 94.1%
normalised response [28]: 89.8%
normalised response [29]: 64%
normalised response [30]: 108%
normalised response [31]: 32.4%
normalised response [32]: 103%
normalised response [33]: 98%
normalised response [34]: 77.3%
normalised response [35]: 87.2%
normalised response [36]: 106%
normalised response [37]: 27.5%

COc1cc(Nc2ncc3c(n2)-c2ccc(Cl)cc2C(c2c(F)cccc2OC)=NC3)ccc1C(=O)O [Alisertib] (1000 nM)
normalised response [1]: 96%
normalised response [2]: 76.9%
normalised response [3]: 96.9%
normalised response [4]: 53.8%
normalised response [5]: 17.4%
normalised response [6]: 93.3%
normalised response [7]: 92.2%
normalised response [8]: 85.8%
normalised response [9]: 96.6%
normalised response [10]: 122%
normalised response [11]: 78.2%
normalised response [12]: 96.3%
normalised response [13]: 108%
normalised response [14]: 69.1%
normalised response [15]: 73.5%
normalised response [16]: 110%
normalised response [17]: 8.1%
normalised response [18]: 89.1%
normalised response [19]: 70.9%
normalised response [20]: 49.2%
normalised response [21]: 79.5%
normalised response [22]: 62.6%
normalised response [23]: 56.5%
normalised response [24]: 90.5%
normalised response [25]: 67.6%
normalised response [26]: 71.3%
normalised response [27]: 82.6%
normalised response [28]: 86.5%
normalised response [29]: 84.3%
normalised response [30]: 84.4%
normalised response [31]: 76.3%
normalised response [32]: 78%
normalised response [33]: 62%
normalised response [34]: 140%
normalised response [35]: 27.2%
normalised response [36]: 56.4%
normalised response [37]: 76%
